Experimental data as given in patent US20260146044A1, “AROMATIC COMPOUND, PHARMACEUTICAL COMPOSITION CONTAINING SAME, AND USE THEREOF” (Increland, priority 2023, published 2026).

Experiments:
[1] = system: secretion levels of IL-6 in PBMC cells; assay: Inhibition of LPS+IL-1β-induced IL-6 secretion in PBMC (IL-6 ELISA); type: cell-based; details: human PBMC, 24 h compound pre-incubation, 20 h stimulation
Protocol: This experiment was carried out in RPMI 1640 medium containing 10% FBS/1% penicillin/streptomycin, with each of the compounds at an initial test concentration of 1 μM. The compound DMSO was dissolved to form a stock solution, which was gradiently diluted 5-fold with the culture medium to a 4× working solution concentration. The diluted solution was added to a 96-well plate with 50 μL per well. PBMC (batch No.: HPP20062307, Sichuan Hope Bio-tech Co., Ltd.) cells were counted, and diluted to a concentration of 2×10^6/mL. The diluted cells were added to the above compound-containing 96-well plate with 150 μL per well, fully mixed, and incubated in an incubator with 5% CO2 at 37° C. for 24 h. Then, LPS and […] were further added to final concentrations of 10 ng/mL and 20 ng/mL, respectively, and the cells were further incubated in the incubator with 5% CO2 at 37° C. for 20 h. Then, after centrifugation at 2,000 rpm for 4 min, the supernatant was diluted 110×, and detected using an IL-6 ELISA kit. An OD450 value was read, and converted to an IL-6 concentration based on a standard curve, to calculate an IC50 value by fitting a dose-effect curve using GraphPad 5.0.

[2] = Metabolic stability in human liver microsome; details: liver microsomes
Protocol: (§1) Blank incubation plates T60 and NCF60 were preheated for 10 min; liver microsome was diluted to 0.56 mg/mL in 100 mM phosphate buffer, 445 μL of the microsome working solution (0.56 mg/mL) was transferred to the preheated “incubation” plates T60 and NCF60, and then the incubation plates T60 and NCF60 were pre-incubated with continuous shaking at 37° C. for 10 min. 54 μL of the liver microsome was transferred to a blank plate, then 6 μL of a NAPDH cofactor was added to the blank plate, and then 180 μL of a quenching solution was added to the blank plate; 5 µL of a composite working solution (100 μM) was added to each of the microsome-containing incubation plates (T60 and NCF60), and the mixture was thoroughly mixed 3 times; 50 μL of a buffer was added to the NCF60 plate, and the mixture was thoroughly mixed 3 times. Timing was started; the plates were incubated with shaking at 37° C. for 60 min; and 180 μL of a quenching solution and 6 μL of the NAPDH cofactor were added to a quenching plate TO. The plates were ensured to be cooled to prevent evaporation. For the T60 plate, the mixture was thoroughly mixed 3 times, and 54 μL of the mixture was immediately transferred to the quenching plate at the time point of 0 min. Then, 44 μL of the NAPDH cofactor was added to the incubation plate (T60). Timing was started; and the plate was incubated with shaking at 37° C. for 60 min. At 5, 15, 30, 45, and 60 min, 180 μL of the quenching solution was added to the quenching plate, mixed once, and then 60 μL of sample was continuously transferred from the plate T60 to the quenching plate at each time point.
(§2) For NCF60, the mixture was mixed once, and at the time point of 60 min, 60 μL of sample was transferred from the NCF60 incubator to the quenching solution-containing quenching plate. All sampling plates were shaken for 10 min, then centrifuged at 4,000 rpm at 4° C. for 20 min. 80 µL of the supernatant was transferred to 240 μL of HPLC water, and mixed using a plate shaker for 10 min.

[3] = Metabolic stability in mouse liver microsome; details: liver microsomes
Protocol: as §1, §2

[4] = system: secretion levels of IL-6 in PBMC cells; assay: Inhibition of R848-induced IL-6 secretion in PBMC (IL-6 ELISA); type: cell-based; details: human PBMC, 20 h compound pre-incubation, 24 h stimulation
Protocol: This experiment was carried out in RPMI 1640 medium containing 10% FBS/1% penicillin/streptomycin, with each of the compounds at an initial test concentration of 1 μM. The compound DMSO was dissolved to form a stock solution, which was gradiently diluted 4-fold with the culture medium to a 4× working solution concentration. The diluted solution was added to a 96-well plate with 50 μL per well. PBMC (batch No.: HPP20062307, Sichuan Hope Bio-tech Co., Ltd.) cells were counted, and diluted to a concentration of 2×10^6/mL. The diluted cells were added to the above compound-containing 96-well plate with 150 μL per well, fully mixed, and incubated in an incubator with 5% CO2 at 37° C. for 20 h. Then, R848 was further added until a final concentration of […], and the cells were further incubated in the incubator with 5% CO2 at 37° C. for additional 24 h. Then, after centrifugation at 2,000 rpm for 4 min, the supernatant was diluted 110×, and detected using an IL-6 ELISA kit. An OD450 value was read, and converted to an IL-6 concentration based on a standard curve, to calculate an IC50 value by fitting a dose-effect curve using GraphPad 5.0.

[5] = microsomes
Protocol: as §1, §2

[6] = microsomes; remark: listed apart in the source
Protocol: as §1, §2

[7] = Pharmacokinetic experiment on mice (iv and ig); type: in vivo; details: mouse, plasma, BALB/c Mice; for Cmax: read-out: Peak plasma concentration Cmax
[8] = Pharmacokinetic experiment on SD rats (iv and ig); type: in vivo; details: Sprague-Dawley, rat, plasma; for Cmax: read-out: Peak plasma concentration Cmax
Protocol: Pharmacokinetic experiment on SD rats: in this experiment, two administration modes: oral intragastric administration and tail vein injection were selected. Each of the compounds of the present patented invention was administered at an oral dose of 5 mg/kg at an administration volume of 10 mL/kg. […] Appropriate amounts of Solutol and H2O were proportionally added sequentially, and fully mixed ultrasonically by vortexing, to prepare a clear drug solution at 0.5 mg/mL. ICL004-protodrug was administered by intravenous injection at a dose of 1 mg/kg at an administration volume of 10 mL/kg. Right before use, an appropriate amount of the drug was accurately weighed, to prepare a final volume of 20% PEG 400 and 80% Saline. Appropriate amounts of PEG 400 and Saline were proportionally added sequentially, and fully mixed ultrasonically by vortexing, to prepare a clear drug solution at 0.1 mg/mL.
6 SD rats, each with body weight of 180-220 g, were randomly grouped into 2 groups. After fasting but with free access to water overnight, each […] in the first group was administered by gavage. 200 μL of blood was sampled from its eye socket into an anticoagulant tube respectively at each time point of 15 min, 30 min, 1 h, 2 h, 4 h, 6 h, 8 h, and 24 h after administration. Within one h, each of the blood samples was centrifuged at 10,000 rpm at 4° C. for 20 min (the sample was stored on an ice box prior to the centrifugation), and the supernatant (i.e., the plasma) was stored in a refrigerator at −20° C. for LC-MS/MS analysis. 200 μL of blood was sampled from the eye socket of each […] in the second group into an anticoagulant tube respectively at each time point of 5 min, 15 min, 30 min, 1 h, 2 h, 4 h, 8 h, and 24 h after administration by intravenous injection. Within one h, each of the blood samples was centrifuged at 10,000 rpm at 4° C. for 20 min (the blood sample was stored on an ice box prior to the centrifugation), and the supernatant, i.e., the plasma, was stored in a refrigerator at −20° C. for LC-MS/MS analysis.

Compound | IC50 [1] [nM] | half-life at 1 µM [2] [min] | half-life at 1 µM [3] [min] | IC50 [4] [nM] | Mouse liver microsome (t1/2, min) [5] [min] | Human liver microsome (t1/2, min) [6] [min] | bioavailability ([7]; po, ig 3.00 mg/kg vs iv 1.00 mg/kg, read-out: Oral bioavailability Fobs (%)) [%] | AUC ([7]; po, ig, 3.00 mg/kg) [ng·h/mL] | AUC(0-inf) ([7]; po, ig, 3.00 mg/kg) [ng·h/mL] | Cmax ([7]; po, ig, 3.00 mg/kg) [ng/mL] | AUC ([7]; iv, 1.00 mg/kg) [ng·h/mL] | AUC(0-inf) ([7]; iv, 1.00 mg/kg) [ng·h/mL] | Cmax ([7]; iv, 1.00 mg/kg) [ng/mL] | AUC ([8]; iv, 1.00 mg/kg) [ng·h/mL] | AUC(0-inf) ([8]; iv, 1.00 mg/kg) [ng·h/mL] | Cmax ([8]; iv, 1.00 mg/kg) [ng/mL] | bioavailability ([8]; po, ig 5.00 mg/kg vs iv 1.00 mg/kg, read-out: Oral bioavailability Fobs (%)) [%] | AUC ([8]; po, ig, 5.00 mg/kg) [ng·h/mL] | AUC(0-inf) ([8]; po, ig, 5.00 mg/kg) [ng·h/mL] | Cmax ([8]; po, ig, 5.00 mg/kg) [ng/mL]
Cn1c(=O)n(C2CCC(=O)NC2=O)c2cccc(C#CCOC3CCN(C[C@H]4CC[C@H](n5cc(NC(=O)c6cnn7ccc(N8C[C@H]9C[C@@H]8CO9)nc67)c(C(F)F)n5)CC4)CC3)c21 (stereo partly shown) [Positive compound, reference compound] | 38.4 | 39.4 | 29.4 | 38.5 | – | – | – | – | – | – | – | – | – | – | – | – | – | – | – | –
COc1cc2nn([C@H]3CC[C@H](CN4CCC(c5cccc6c5c(C)nn6C5CCC(=O)NC5=O)CC4)CC3)cc2cc1NC(=O)c1cccc(C(F)(F)F)n1 (stereo partly shown) [TM-25] | – | – | – | 28 | 128.7 | 117.1 | – | – | – | – | – | – | – | – | – | – | – | – | – | –
Cc1nn(C2CCC(=O)NC2=O)c2cccc(N3CCN(C[C@H]4CC[C@H](n5cc6cc(NC(=O)c7cnn8cccnc78)c(N7CCOCC7)cc6n5)CC4)CC3)c12 (stereo partly shown) [TM-33] | 10.2 | 77.9 | 46.9 | 13 | – | – | 92.1 | 135000 | 289000 | 12400 | 63100 | 104000 | 6800 | 2250 | 2300 | 530 | 91.9 | 13800 | 10600 | 1100
